The structures appear in SMILES notation.

For one test, the target named is T1, JAK1 (Homo sapiens, UniProt P23458).
T1 construct: 5 μl of catalytic domain recombinant Kinase enzyme+Tyr peptide substrate (Invitrogen, Calif.); purchased Invitrogen
The test is described as follows: Z'-LYTE kinase assay, JAK1 tyrosine phosphorylation activity. The test is classed as biochemical. Particulars: read-out: JAK 1 IC50. An outline of the steps:
(§1)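 Compounds are serially diluted 1:10 in DMSO and tested in duplicate at 1% final DMSO. Each recombinant catalytic domain phosphorylates the Tyr6 FRET peptide with ATP for 1 h at room temperature, then a site-specific protease cleaves unphosphorylated peptide over 1 h before coumarin/fluorescein emission is read.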

Test [1] deals with IL4-induced phospho STAT6 formation in Ramos B lymphocytes. The test can be described thus: Inhibition of IL4-induced phospho STAT6 formation in Ramos B lymphocytes (flow cytometry). The note with it: Homo sapiens; for inhibition at 0.2 µM: 200 nM compound, read-out: % Inhibition of IL-4 Induced STAT6 Phosphorylation 200 nM; for inhibition at 1 µM: 1 μM compound, read-out: % Inhibition of IL-4 Induced STAT6 Phosphorylation 1 μM. In kind it is cell-based, human. The text has this:
Similar types of assays can be used to assess JAK inhibitory activity and to determine the degree of selectivity of the particular compound as compared to syk. One means of assaying for such inhibition is detection of the effect of the compounds of the present invention on the upregulation of downstream gene products. In the Ramos/IL4 assay, B-cells are stimulated with the cytokine Interleukin-4 (IL-4) leading to the activation of the JAK/Stat pathway through phosphorylation of the JAK family kinases, JAK1 and JAK3, which in turn phosphorylate and activate the transcription factor Stat-6. […] To study the effect of inhibitors (e.g., the 2,4-substituted pyrimindinediamine compounds described herein) on the JAK1 and JAK3, human Ramos B-cells are stimulated with human IL-4. 10′ post-stimulation, cells are subjected to intracellular flow cytometry to measure the extent of STAT-6 phosphorylation. 20 to 24 hours post-stimulation, cells are stained for upregulation of CD23 and analyzed using flow cytometry.
Inhibition of IL4-induced phospho STAT6 formation was measured by pre-incubating 0.5 million Ramos B lymphocytes (ATCC) with 5 μl compound or DMSO vehicle for 1 hour at 37° C./5% CO2. Cells were activated by addition of 1 ng/ml [f]IL4 (R & D Research Systems) for 10 min at 37° C./5% CO2 and then fixed by addition of 1.6% [f]PFA (Electron Microscopy Services). Following a PBS wash step and permaeabilization with 100% methanol, cells were incubated with ALEXA-conjugated anti-phosphoSTAT6 (Y641) antibody (BD 612600). The extent of cell associated-fluorescence was determined by flow cytomentry and data expressed as mean fluorescent intensity. The extent of inhibition of the IL4-induced signal was then calculated.

The next test concerns the target T2, JAK3 (Homo sapiens, UniProt P52333).
T2 construct: 5 μl of catalytic domain recombinant Kinase enzyme+Tyr peptide substrate (Invitrogen, Calif.); purchased Invitrogen
The test is described as follows: Z'-LYTE kinase assay, JAK3 tyrosine phosphorylation activity. In kind it is biochemical. An outline of the steps: as §1

For a further test, the target named is T3, TYK2 (Homo sapiens, UniProt P29597).
T3 construct: 5 μl of catalytic domain recombinant Kinase enzyme+Tyr peptide substrate (Invitrogen, Calif.); purchased Invitrogen
T3 sequence (P29597 897-1176 limits assumed): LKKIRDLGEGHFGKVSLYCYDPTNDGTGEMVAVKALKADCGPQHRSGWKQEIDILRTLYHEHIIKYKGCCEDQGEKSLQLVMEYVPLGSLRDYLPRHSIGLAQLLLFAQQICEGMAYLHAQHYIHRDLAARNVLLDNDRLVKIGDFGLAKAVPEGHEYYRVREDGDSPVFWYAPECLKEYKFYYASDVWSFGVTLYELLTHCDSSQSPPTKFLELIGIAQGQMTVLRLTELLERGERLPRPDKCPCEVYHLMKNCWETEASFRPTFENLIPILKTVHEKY
The test is described as follows: Z'-LYTE kinase assay, TYK2 tyrosine phosphorylation activity. In kind it is biochemical. An outline of the steps:
as §1

Another test concerns the target T4, JAK2 (Homo sapiens, UniProt O60674).
T4 construct: 5 μl of catalytic domain recombinant Kinase enzyme+Tyr peptide substrate (Invitrogen, Calif.); purchased Invitrogen
The test is described as follows: Z'-LYTE kinase assay, JAK2 tyrosine phosphorylation activity. The test is classed as biochemical. An outline of the steps:
as §1

T4 sequence (O60674 849-1124 limits assumed): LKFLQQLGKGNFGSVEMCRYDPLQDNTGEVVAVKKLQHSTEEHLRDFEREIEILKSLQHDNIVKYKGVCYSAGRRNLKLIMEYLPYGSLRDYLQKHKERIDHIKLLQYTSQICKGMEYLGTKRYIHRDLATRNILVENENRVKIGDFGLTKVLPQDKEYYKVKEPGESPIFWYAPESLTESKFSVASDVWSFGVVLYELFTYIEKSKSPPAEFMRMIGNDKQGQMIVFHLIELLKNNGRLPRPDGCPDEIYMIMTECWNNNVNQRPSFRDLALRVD
T2 sequence (P52333 822-1111 limits assumed): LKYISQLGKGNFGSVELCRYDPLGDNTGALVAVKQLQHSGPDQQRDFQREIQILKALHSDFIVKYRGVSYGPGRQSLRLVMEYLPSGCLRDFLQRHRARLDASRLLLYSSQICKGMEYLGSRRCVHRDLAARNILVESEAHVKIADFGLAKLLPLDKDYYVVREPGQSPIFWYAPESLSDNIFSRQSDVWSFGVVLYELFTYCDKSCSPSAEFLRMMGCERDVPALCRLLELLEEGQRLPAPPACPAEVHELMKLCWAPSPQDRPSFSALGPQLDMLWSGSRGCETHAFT
T1 sequence (P23458 875-1153 limits assumed): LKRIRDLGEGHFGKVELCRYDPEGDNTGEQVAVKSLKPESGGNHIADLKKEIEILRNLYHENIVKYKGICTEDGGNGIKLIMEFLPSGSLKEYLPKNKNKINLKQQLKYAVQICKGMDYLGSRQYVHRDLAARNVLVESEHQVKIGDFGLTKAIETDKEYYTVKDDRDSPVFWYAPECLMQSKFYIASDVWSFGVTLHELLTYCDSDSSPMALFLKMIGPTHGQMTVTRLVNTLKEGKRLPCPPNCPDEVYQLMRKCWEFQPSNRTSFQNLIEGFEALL

In general, IC50 refers to the concentration at which inhibition is half-maximal. One may read the inhibition as the relative decrease from the control value, in per cent. Regarding `CNC(=O)Nc1cc(Nc2ncc(C(N)=O)c(NCc3ccccc3)n2)ccc1C` [Example 157, 4-(benzylamino)-2-(4-methyl-3-(3-methylureido)phenylamino)pyrimidine-5-carboxamide], the half-inhibitory concentration (IC50) at JAK1 lay in the range of 10 to 100 nM; against JAK3 it was 1 to 10 nM; at TYK2, 1 to 10 nM; on JAK2, 10 to 100 nM. In test [1], the inhibition at 0.2 µM stood at 23%. Also, the inhibition at 1 µM in test [1] turned out to be 31.7%.

Turning to `COc1ccc(Nc2ncc(C(N)=O)c(NCc3ccccc3)n2)cc1NC(=O)N1CCCC1` [Example 163, 4-(benzylamino)-2-(4-methoxy-3-(pyrrolidine-1-carboxamido)phenylamino)pyrimidine-5-carboxamide], the half-inhibitory concentration (IC50) was 10 to 100 nM on JAK1, 1 to 10 nM at JAK3, 1 to 10 nM against TYK2 and 10 to 100 nM at JAK2. Further, the inhibition at 0.2 µM in test [1] was found to be 20.7%. Further, the inhibition at 1 µM in test [1] amounted to 61%.

With `C[C@H]1CCCN1C(=O)Nc1cccc(Nc2ncc(C(N)=O)c(NCc3ccccc3)n2)c1` [Example 139, (S)-4-(benzylamino)-2-(3-(2-methylpyrrolidine-1-carboxamido)phenylamino)pyrimidine-5-carboxamide], the IC50 on JAK1 is 10 to 100 nM; on JAK3 it was 1 to 10 nM; against TYK2, 1 to 10 nM; against JAK2 it was 10 to 100 nM. The inhibition at 0.2 µM in test [1] was 25.3%. Further, the inhibition at 1 µM in test [1] was determined as 74.3%.

On to `COC[C@@H]1CCCN1C(=O)Nc1cccc(Nc2ncc(C(N)=O)c(NCc3ccccc3)n2)c1` [Example 140, (S)-4-(benzylamino)-2-(3-(2-(methoxymethyl)pyrrolidine-1-carboxamido)phenylamino)pyrimidine-5-carboxamide], for which the IC50 lay within 10 to 100 nM on JAK1, 1 to 10 nM on JAK3, 1 to 10 nM on TYK2 and 10 to 100 nM against JAK2. Also, the inhibition at 0.2 µM in test [1] worked out at 21.7%. Also, the inhibition at 1 µM in test [1] turned out to be 69%.

In the case of `NC(=O)c1cnc(Nc2cccc(NC(=O)N3CCCCC3)c2)nc1NCc1ccccc1` [Example 218, 4-(benzylamino)-2-(3-(piperidine-1-carboxamido)phenylamino)pyrimidine-5-carboxamide], the IC50 lay in the range of 10 to 100 nM at JAK1, 1 to 10 nM against JAK3, 1 to 10 nM against TYK2 and 10 to 100 nM against JAK2. Moreover, the inhibition at 0.2 µM in test [1] came out at 28.7%. For the same compound, in test [1], the inhibition at 1 µM is 76%.

Turning to `COC[C@H]1CCCN1C(=O)Nc1cccc(Nc2ncc(C(N)=O)c(NCc3ccccc3)n2)c1` [Example 147, (R)-4-(benzylamino)-2-(3-(2-(methoxymethyl)pyrrolidine-1-carboxamido)phenylamino)pyrimidine-5-carboxamide], the IC50 lay in the range of 10 to 100 nM at JAK1, 1 to 10 nM at JAK3, 1 to 10 nM against TYK2 and 10 to 100 nM on JAK2. For the same compound, in test [1], the inhibition at 0.2 µM is 28.7%. In addition, the inhibition at 1 µM in test [1] came out at 82%.

Turning to `NC(=O)Nc1cc(Nc2ncc(C(N)=O)c(NCc3ccccc3)n2)ccc1Cl` [Example 194, 4-(benzylamino)-2-(4-chloro-3-ureidophenylamino)pyrimidine-5-carboxamide], the half-inhibitory concentration (IC50) is 100 to 1000 nM on JAK1, 1 to 10 nM at JAK3, 10 to 100 nM against TYK2 and 100 to 1000 nM against JAK2. Besides, the inhibition at 0.2 µM in test [1] worked out at 10%. In addition, the inhibition at 1 µM in test [1] was 22.7%.

Take `C[C@@H](Nc1nc(Nc2ccc(Cl)c(NC(=O)N(C)C)c2)ncc1C(N)=O)c1ccccc1` [Example 195, (R)-2-(4-chloro-3-(3,3-dimethylureido)phenylamino)-4-(1-phenylethylamino)pyrimidine-5-carboxamide]: the IC50 on JAK1 lay in the range of 100 to 1000 nM; at JAK3, 1 to 10 nM; at TYK2, 10 to 100 nM; at JAK2 it was 10 to 100 nM. Besides, the inhibition at 0.2 µM in test [1] is 3.3%. Besides, in test [1], the inhibition at 1 µM was determined as 27.3%.

On to `NC(=O)c1cnc(Nc2cccc(NC(=O)N3CC[C@H](O)C3)c2)nc1NCc1ccccc1` [Example 143, (S)-4-(benzylamino)-2-(3-(3-hydroxypyrrolidine-1-carboxamido)phenylamino)pyrimidine-5-carboxamide], for which the IC50 on JAK1 was in the range of 10 to 100 nM; against JAK3, 1 to 10 nM; on TYK2, 1 to 10 nM; at JAK2 it was 10 to 100 nM. For the same compound, in test [1], the inhibition at 0.2 µM came out at 44.7%. The inhibition at 1 µM in test [1] amounted to 85.7%.

In the case of `CC(=O)Nc1cccc(Nc2ncc(C(N)=O)c(NCC3CCNCC3)n2)c1` [Example 190, 2-(3-acetamidophenylamino)-4-(piperidin-4-ylmethylamino)pyrimidine-5-carboxamide], the IC50 on JAK1 was 10 to 100 nM; against JAK3, 1 to 10 nM; against TYK2, 10 to 100 nM; against JAK2, 10 to 100 nM. In addition, the inhibition at 0.2 µM in test [1] came out at 17%. Further, the inhibition at 1 µM in test [1] is 39.3%.

For `CN(C)C(=O)Nc1cc(Nc2ncc(C(N)=O)c(NCc3ccccc3)n2)ccc1Cl` [Example 196, 4-(benzylamino)-2-(4-chloro-3-(3,3-dimethylureido)phenylamino)pyrimidine-5-carboxamide], the half-maximal inhibitory concentration (IC50) on JAK1 was 100 to 1000 nM; against JAK3 it was 1 to 10 nM; against TYK2 it was 10 to 100 nM; at JAK2, 100 to 1000 nM. Besides, the inhibition at 0.2 µM in test [1] came to 8.3%. For the same compound, the inhibition at 1 µM in test [1] is 65%.

Turning to `NC(=O)c1cnc(Nc2ccc(Cl)c(NC(=O)N3CCCC3)c2)nc1NCc1ccccc1F` [Example 170, 2-(4-chloro-3-(pyrrolidine-1-carboxamido)phenylamino)-4-(2-fluorobenzylamino)pyrimidine-5-carboxamide], the IC50 on JAK1 was above 1000 nM; against JAK3, 1 to 10 nM; on TYK2, 10 to 100 nM; at JAK2, above 1000 nM. Moreover, the inhibition at 0.2 µM in test [1] is 5.7%. For the same compound, the inhibition at 1 µM in test [1] was determined as 53.7%.

Turning to `NC(=O)c1cnc(Nc2cccc(NC(=O)C3CCOC3)c2)nc1NCc1ccccc1` (stereo not drawn) [Example 203, 4-(benzylamino)-2-(3-(tetrahydrofuran-3-carboxamido)phenylamino)pyrimidine-5-carboxamide], the IC50 lay in the range of 10 to 100 nM on JAK1, 1 to 10 nM against JAK3, 1 to 10 nM at TYK2 and 10 to 100 nM against JAK2. Also, the inhibition at 0.2 µM in test [1] worked out at 80%. Further, the inhibition at 1 µM in test [1] was 106%.

As for `NC(=O)c1cnc(Nc2cccc(NC(=O)N3CCCC3)c2)nc1NCc1ccccc1F` [Example 168, 4-(2-fluorobenzylamino)-2-(3-(pyrrolidine-1-carboxamido)phenylamino)pyrimidine-5-carboxamide], the concentration for half-maximal inhibition (IC50) was 10 to 100 nM at JAK1, 1 to 10 nM at JAK3, 1 to 10 nM against TYK2 and 10 to 100 nM on JAK2. The inhibition at 0.2 µM in test [1] is 54%. For the same compound, the inhibition at 1 µM in test [1] worked out at 92%.

Regarding `CNC(=O)Nc1cccc(Nc2ncc(C(N)=O)c(NCc3ccccc3F)n2)c1` [Example 181, 4-(2-fluorobenzylamino)-2-(3-(3-methylureido)phenylamino)pyrimidine-5-carboxamide], the IC50 at JAK1 lay in the range of 10 to 100 nM; against JAK3, 1 to 10 nM; at TYK2, 1 to 10 nM; against JAK2, 10 to 100 nM. The inhibition at 0.2 µM in test [1] was 23.7%. Besides, the inhibition at 1 µM in test [1] was 38.7%.

Source of the values: US8853230B2, “Inhibitors of JAK” (Portola Pharmaceuticals, Inc., priority 2009, dated 2014).
